Test results from publication PMC12171682, “Saarvienin A—A Novel Glycopeptide with Potent Activity against Drug‐Resistant Bacteria” (Angewandte Chemie (International Ed. in English), 2025).
Converted amounts (≈) assume the structure as drawn. Read-outs that look alike come from different tables or passages of the source.

What was measured:
[1] = test system: vancomycin‐resistant E. faecium clinical isolates with reduced susceptibility to daptomycin (n = 26); assay: microbe, parasite or virus in culture; settings: Enterococcus faecium; for MIC: 24 h
[2] = test system: E. faecalis ATCC 29212; assay: microbe, parasite or virus in culture; settings: Enterococcus faecalis, ATCC29212, 24 h, read-out: MIC, E. faecalis ATCC29212
[3] = test system: E. faecalis ATCC 29212; settings: reference strain in Table S5; broth microdilution, MHB II, 37 °C, 24 h; daptomycin with 50 µg/mL Ca2+; mean of two independent experiments
[4] = test system: vancomycin‐resistant E. faecium clinical isolates with reduced susceptibility to daptomycin (n = 26); settings: 24 h

CC1(C)S[C@@H]2[C@H](NC(=O)[C@H](N)c3ccccc3)C(=O)N2[C@H]1C(=O)O [Ampicillin]
MIC ([1]; read-out: MIC, Enterococcus faecium isolate 1): > 64 µg/mL
MIC ([1]; read-out: MIC, Enterococcus faecium isolate 2): > 64 µg/mL
MIC ([1]; read-out: MIC, Enterococcus faecium isolate 3): 64 µg/mL (≈ 183 µM)
MIC ([1]; read-out: MIC, Enterococcus faecium isolate 4): > 64 µg/mL
MIC ([1]; read-out: MIC, Enterococcus faecium isolate 5): > 64 µg/mL
MIC ([1]; read-out: MIC, Enterococcus faecium isolate 6): > 64 µg/mL
MIC ([1]; read-out: MIC, Enterococcus faecium isolate 7): > 64 µg/mL
MIC ([1]; read-out: MIC, Enterococcus faecium isolate 8): > 64 µg/mL
MIC ([1]; read-out: MIC, Enterococcus faecium isolate 9): > 64 µg/mL
MIC ([1]; read-out: MIC, Enterococcus faecium isolate 10): > 64 µg/mL
MIC ([1]; read-out: MIC, Enterococcus faecium isolate 11): > 64 µg/mL
MIC ([1]; read-out: MIC, Enterococcus faecium isolate 12): > 64 µg/mL
MIC ([1]; read-out: MIC, Enterococcus faecium isolate 13): > 64 µg/mL
MIC ([1]; read-out: MIC, Enterococcus faecium isolate 14): > 64 µg/mL
MIC ([1]; read-out: MIC, Enterococcus faecium isolate 15): > 64 µg/mL
MIC ([1]; read-out: MIC, Enterococcus faecium isolate 16): > 64 µg/mL
MIC ([1]; read-out: MIC, Enterococcus faecium isolate 17): > 64 µg/mL
MIC ([1]; read-out: MIC, Enterococcus faecium isolate 18): > 64 µg/mL
MIC ([1]; read-out: MIC, Enterococcus faecium isolate 19): > 64 µg/mL
MIC ([1]; read-out: MIC, Enterococcus faecium isolate 20): > 64 µg/mL
MIC ([1]; read-out: MIC, Enterococcus faecium isolate 21): > 64 µg/mL
MIC ([1]; read-out: MIC, Enterococcus faecium isolate 22): > 64 µg/mL
MIC ([1]; read-out: MIC, Enterococcus faecium isolate 23): > 64 µg/mL
MIC ([1]; read-out: MIC, Enterococcus faecium isolate 24): > 64 µg/mL
MIC ([1]; read-out: MIC, Enterococcus faecium isolate 25): > 64 µg/mL
MIC ([1]; read-out: MIC, Enterococcus faecium isolate 26): > 64 µg/mL
MIC50 ([1]; VRE): > 64 µg/mL
MIC90 ([1]; VRE): > 64 µg/mL
MIC [2]: 2 µg/mL (≈ 5.72 µM)

O=C(O)c1cn(C2CC2)c2cc(N3CCNCC3)c(F)cc2c1=O [Ciprofloxacin]
MIC [2]: 2 µg/mL (≈ 6.04 µM)

CCCCCCCCCC(=O)N[C@@H](Cc1c[nH]c2ccccc12)C(=O)N[C@H](CC(N)=O)C(=O)N[C@@H](CC(=O)O)C(=O)N[C@@H]1C(=O)NCC(=O)N[C@@H](CCCN)C(=O)N[C@@H](CC(=O)O)C(=O)N[C@H](C)C(=O)N[C@@H](CC(=O)O)C(=O)NCC(=O)N[C@H](CO)C(=O)N[C@@H]([C@H](C)CC(=O)O)C(=O)N[C@@H](CC(=O)c2ccccc2N)C(=O)O[C@@H]1C [Daptomycin, daptomycin]
MIC, E. faecalis ATCC29212 [3]: 4 µg/mL (≈ 2.47 µM)
MIC50 [4]: 8 µg/mL (≈ 4.94 µM)
MIC90 [4]: 8 µg/mL (≈ 4.94 µM)
MIC Range [4]: 8 to 16 µg/mL
MIC, Enterococcus faecium isolate 1 [4]: 8 µg/mL (≈ 4.94 µM)
MIC, Enterococcus faecium isolate 2 [4]: 8 µg/mL (≈ 4.94 µM)
MIC, Enterococcus faecium isolate 3 [4]: 8 µg/mL (≈ 4.94 µM)
MIC, Enterococcus faecium isolate 4 [4]: 8 µg/mL (≈ 4.94 µM)
MIC, Enterococcus faecium isolate 5 [4]: 8 µg/mL (≈ 4.94 µM)
MIC, Enterococcus faecium isolate 6 [4]: 8 µg/mL (≈ 4.94 µM)
MIC, Enterococcus faecium isolate 7 [4]: 8 µg/mL (≈ 4.94 µM)
MIC, Enterococcus faecium isolate 8 [4]: 8 µg/mL (≈ 4.94 µM)
MIC, Enterococcus faecium isolate 9 [4]: 8 µg/mL (≈ 4.94 µM)
MIC, Enterococcus faecium isolate 10 [4]: 8 µg/mL (≈ 4.94 µM)
MIC, Enterococcus faecium isolate 11 [4]: 8 µg/mL (≈ 4.94 µM)
MIC, Enterococcus faecium isolate 12 [4]: 8 µg/mL (≈ 4.94 µM)
MIC, Enterococcus faecium isolate 13 [4]: 8 µg/mL (≈ 4.94 µM)
MIC, Enterococcus faecium isolate 14 [4]: 8 µg/mL (≈ 4.94 µM)
MIC, Enterococcus faecium isolate 15 [4]: 8 µg/mL (≈ 4.94 µM)
MIC, Enterococcus faecium isolate 16 [4]: 8 µg/mL (≈ 4.94 µM)
MIC, Enterococcus faecium isolate 17 [4]: 8 µg/mL (≈ 4.94 µM)
MIC, Enterococcus faecium isolate 18 [4]: 8 µg/mL (≈ 4.94 µM)
MIC, Enterococcus faecium isolate 19 [4]: 8 µg/mL (≈ 4.94 µM)
MIC, Enterococcus faecium isolate 20 [4]: 8 µg/mL (≈ 4.94 µM)
MIC, Enterococcus faecium isolate 21 [4]: 8 µg/mL (≈ 4.94 µM)
MIC, Enterococcus faecium isolate 22 [4]: 8 µg/mL (≈ 4.94 µM)
MIC, Enterococcus faecium isolate 23 [4]: 8 µg/mL (≈ 4.94 µM)
MIC, Enterococcus faecium isolate 24 [4]: 16 µg/mL (≈ 9.87 µM)
MIC, Enterococcus faecium isolate 25 [4]: 16 µg/mL (≈ 9.87 µM)
MIC, Enterococcus faecium isolate 26 [4]: 8 µg/mL (≈ 4.94 µM)
